Measured values from publication PMC7814170 (Molecular Biotechnology, 2021).
pEC50: −log10 of the molar value.

Target: SARS-CoV-2 main protease 3CLpro (Severe acute respiratory syndrome coronavirus 2, UniProt P0DTD1)
Test: cell-based
Settings: read-out: inhibition to viral protease (reduction in GFP fluorescent activity)

Question: Which inhibition at 40 µM does the source give for CC(C)(C)NC(=O)N[C@H](C(=O)N1C[C@H]2[C@@H]([C@H]1C(=O)NC(CC1CCC1)C(=O)C(N)=O)C2(C)C)C(C)(C)C (stereo partly shown) [Boceprevir, boceprevir, reference compound] here?
Answer: 80%

Question: Which inhibition at 40 µM does the source give for O=C1c2ccccc2NC(c2cc(Br)ccc2O)N1N=Cc1cc(Br)ccc1O (stereo not shown) [QZ1, 3-(5-Bromo-2-hydroxybenzylideneamino)-2-(5-bromo-2-hydroxyphenyl)-2,3-dihydroquinazoline-4 (1H)-one] here?
Answer: 20 to 50%

Question: For O=C1c2ccccc2NC(c2cc(Cl)ccc2O)N1N=Cc1cc(Cl)ccc1O (stereo not shown) [QZ2, 3-[(5-Chloro-2-hydroxy-benzylidene)-amino]-2-(5-chloro-2-hydroxy-phenyl)-2,3-dihydroquinazoline-4(1H)-one], which inhibition at 40 µM is on record?
Answer: 20 to 50%

Question: Which inhibition at 40 µM does the source give for COc1cc(Br)cc(C=NN2C(=O)c3ccccc3NC2c2cc(Br)cc(OC)c2O)c1O (stereo not shown) [QZ3, 3-(5-Bromo-2-hydroxy-3-methoxybenzylideneamino)-2-(5-bromo-2-hydroxy-3-methoxyphenyl)-2,3-dihydroquinazoline-4(1H)-one] here?
Answer: 20 to 50%

Question: With COc1ccc(O)c(C=NN2C(=O)c3ccccc3NC2c2cc(OC)ccc2O)c1 (stereo not shown) [QZ4, 3-(5-Methoxy-2-hydroxybenzylideneamino)-2(5-methoxy-2-hydroxyphenyl)-2,3-dihydroquinazoline-4(1H)-one] as the molecule, how does the inhibition at 40 µM read?
Answer: ~80%

Question: With O=C1c2ccccc2NC(c2cc([N+](=O)[O-])ccc2O)N1N=Cc1cc([N+](=O)[O-])ccc1O (stereo not shown) [QZ5, 3-(5-Nitro-2-hydroxybenzylideneamino)-2(5-nitro-2-hydroxyphenyl)-2,3-dihydroquinazoline-4(1H)-one] as the molecule, how does the inhibition at 40 µM read?
Answer: 20 to 50%

System: SARS-CoV-2 main protease
Test: not given
Settings: read-out: EC50 measured by FRET-based enzymatic assay; cited from earlier work

Question: With CC(C)(C)NC(=O)N[C@H](C(=O)N1C[C@H]2[C@@H]([C@H]1C(=O)NC(CC1CCC1)C(=O)C(N)=O)C2(C)C)C(C)(C)C (stereo partly shown) [Boceprevir, boceprevir, reference compound] as the molecule, how does the pEC50 read?
Answer: […]
